Where “and” joins values, the source holds several entries; their conditions need not be identical. Equal values may be shown once. Entries after “also recorded” stand apart in the source; their conditions may differ. Read-outs that look alike come from different tables or passages of the source.
Experiments:
[1] = in vivo
[2] = tested on: Huh7 parental cells
[3] = tested on: Huh7 cells expressing a subgenomic RNA replicon of Con1 (genotype 1b) sequence origin
[4] = molecular target: NRI (Homo sapiens, UniProt P23975); assay type: binding
Sequence of NRI (P23975 whole entry): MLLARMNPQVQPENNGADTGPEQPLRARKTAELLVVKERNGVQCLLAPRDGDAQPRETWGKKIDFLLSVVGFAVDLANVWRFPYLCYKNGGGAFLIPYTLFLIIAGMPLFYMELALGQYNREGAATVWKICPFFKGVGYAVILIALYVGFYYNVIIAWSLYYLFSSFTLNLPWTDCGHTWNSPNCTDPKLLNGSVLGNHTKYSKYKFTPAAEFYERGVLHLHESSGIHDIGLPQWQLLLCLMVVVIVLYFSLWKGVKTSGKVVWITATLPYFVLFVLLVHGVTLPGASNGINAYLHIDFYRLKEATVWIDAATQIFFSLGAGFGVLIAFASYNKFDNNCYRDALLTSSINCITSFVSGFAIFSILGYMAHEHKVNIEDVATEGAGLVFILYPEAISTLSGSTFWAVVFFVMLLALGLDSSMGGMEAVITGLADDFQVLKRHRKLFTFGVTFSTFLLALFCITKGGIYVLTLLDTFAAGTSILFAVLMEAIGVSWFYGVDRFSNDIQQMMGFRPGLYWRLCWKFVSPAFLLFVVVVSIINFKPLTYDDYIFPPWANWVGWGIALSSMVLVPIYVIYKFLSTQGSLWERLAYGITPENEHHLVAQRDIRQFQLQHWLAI

[5] = in vitro; settings: human
[6] = tested on: Huh7 cells expressing a subgenomic RNA replicon of Con1 (genotype 1b) sequence origin; assay: microbe, parasite or virus in culture; settings: Hepatitis C virus
[7] = molecular target: SRI (Homo sapiens, UniProt P31645); assay: BBB/Neurotransmitter Binding: SRI
Sequence of SRI (P31645 whole entry): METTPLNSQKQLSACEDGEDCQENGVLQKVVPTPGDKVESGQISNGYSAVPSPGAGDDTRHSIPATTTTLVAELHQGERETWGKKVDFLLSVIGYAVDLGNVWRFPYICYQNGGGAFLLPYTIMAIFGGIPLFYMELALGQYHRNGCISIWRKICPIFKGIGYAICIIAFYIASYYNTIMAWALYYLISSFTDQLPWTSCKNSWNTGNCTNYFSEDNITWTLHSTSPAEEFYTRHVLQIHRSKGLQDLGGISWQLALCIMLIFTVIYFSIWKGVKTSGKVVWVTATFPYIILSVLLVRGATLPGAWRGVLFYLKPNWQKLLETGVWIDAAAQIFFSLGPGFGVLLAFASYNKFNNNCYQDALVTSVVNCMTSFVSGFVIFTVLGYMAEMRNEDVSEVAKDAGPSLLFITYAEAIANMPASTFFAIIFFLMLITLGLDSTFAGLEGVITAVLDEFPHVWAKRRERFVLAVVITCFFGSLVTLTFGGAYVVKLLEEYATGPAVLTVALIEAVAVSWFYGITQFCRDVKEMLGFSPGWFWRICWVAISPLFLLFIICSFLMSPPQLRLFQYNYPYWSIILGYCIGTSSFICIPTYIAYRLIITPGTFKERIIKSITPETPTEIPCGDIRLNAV

[8] = tested on: influenza A/PR/8/34; design: species or system C57/BL6 mice; settings: mouse, in vivo
[9] = molecular target: T1, HER1-2 (Homo sapiens, UniProt P04626); settings: selective HER1 inhibitor (vs. HER1-2); cited from earlier work
T1 construct: the other entry of the earlier key: EGFR (P00533, Epidermal growth factor receptor)
T1 sequence (P04626 with tags, fused parts or gaps): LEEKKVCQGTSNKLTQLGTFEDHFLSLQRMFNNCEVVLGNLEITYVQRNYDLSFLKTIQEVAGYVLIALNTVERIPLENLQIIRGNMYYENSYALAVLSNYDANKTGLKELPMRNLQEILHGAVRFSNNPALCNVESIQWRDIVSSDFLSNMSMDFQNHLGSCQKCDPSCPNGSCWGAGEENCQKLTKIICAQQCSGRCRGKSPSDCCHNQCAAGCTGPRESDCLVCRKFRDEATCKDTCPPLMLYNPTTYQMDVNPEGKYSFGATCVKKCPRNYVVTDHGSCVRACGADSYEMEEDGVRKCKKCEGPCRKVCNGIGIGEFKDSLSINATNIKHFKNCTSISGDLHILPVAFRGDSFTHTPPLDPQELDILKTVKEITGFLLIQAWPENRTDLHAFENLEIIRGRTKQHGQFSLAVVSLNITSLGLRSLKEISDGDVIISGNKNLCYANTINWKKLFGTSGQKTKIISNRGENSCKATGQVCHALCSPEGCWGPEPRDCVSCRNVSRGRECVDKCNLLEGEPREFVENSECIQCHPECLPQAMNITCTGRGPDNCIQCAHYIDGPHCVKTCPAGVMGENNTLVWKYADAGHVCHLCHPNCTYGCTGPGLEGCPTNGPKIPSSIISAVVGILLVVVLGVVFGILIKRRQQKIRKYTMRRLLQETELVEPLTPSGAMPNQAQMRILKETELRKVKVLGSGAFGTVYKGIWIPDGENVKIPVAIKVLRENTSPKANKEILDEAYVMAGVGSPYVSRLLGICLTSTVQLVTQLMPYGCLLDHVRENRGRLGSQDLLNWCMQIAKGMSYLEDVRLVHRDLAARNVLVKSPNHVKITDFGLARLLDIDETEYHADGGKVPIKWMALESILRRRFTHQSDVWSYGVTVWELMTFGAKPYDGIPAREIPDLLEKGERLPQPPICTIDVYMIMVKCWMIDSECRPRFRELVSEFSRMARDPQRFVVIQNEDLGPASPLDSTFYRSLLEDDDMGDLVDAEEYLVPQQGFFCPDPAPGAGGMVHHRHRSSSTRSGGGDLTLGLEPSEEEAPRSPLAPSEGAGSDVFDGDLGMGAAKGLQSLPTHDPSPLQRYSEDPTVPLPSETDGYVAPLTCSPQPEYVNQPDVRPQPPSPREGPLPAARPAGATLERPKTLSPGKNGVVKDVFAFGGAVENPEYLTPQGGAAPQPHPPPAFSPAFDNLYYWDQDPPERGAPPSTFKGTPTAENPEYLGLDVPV

[10] = general description; cited from earlier work
[11] = GETYPE1B, Huh-7, 72 h, read-out: Max Effect @CC30 (inhibition)
[12] = Huh-7, read-out: IC50 (uM) [SG]
[13] = Huh-7, read-out: Max Effect@CC30 (inhibition)
[14] = Huh-7, read-out: Max effect @CC30 (%)

SMILES | Pharmcokinetics: Brain levels compared with sertraline [1] | Pharmcokinetics: overall assessment [1] | IC90 [3] | IC50 ([3]; read-out: IC50 (uM) [SG]) | BBB/Neurotransmitter Binding (nM) NRI [4] | CC50 ([5]; CC50 (uM)) | CC50 ([5]; CC50 (uM) [SG]) | IC50 [6, 12] | Emax [6, 13] | Emax [6, 14] | IC50 ([6]; Huh-7, read-out: SA IC50 (uM)) | IC90 ([6]; Huh-7) | further results
CN[C@H]1CC[C@@H](c2ccc(Cl)c(Cl)c2)c2ccc(C(N)=O)cc21 [Sertraline A-ring carboxamide] | IC50, Brain levels lower | Optimal PK. Liver | 5.4 ± 1.81 µM | 1.8 ± 0.18 µM | 410 nM |  |  |  |  |  |  |  | CC50 [2]: 16.2 ± 0.57 µM; Max Effect@CC30 (inhibition) [3]: 94.5 ± 0.7%; Max effect @CC30 (%) [3]: 94.5 ± 0.7%; IC50 ([3]; read-out: SA IC50): 1.8 µM
CN[C@H]1CC[C@@H](c2ccc(Cl)c(Cl)c2)c2ccc(NS(C)(=O)=O)cc21 [Sertraline (Reverse) Methanesulfonamide, N-((5S,8S)-5-(3,4-dichlorophenyl)-8-(methylamino)-5,6,7,8-tetrahydronaphthalen-2-yl)methanesulfonamide] | lower sertraline | Optimal PK, Liver levels |  |  | 60 nM | 12.9 ± 0.3 µM | 12.9 ± 0.3 µM | 3.99 ± 0.8 µM | 83.3 ± 20.2% | 83.3 ± 20.2% | 3.99 ± 0.8 µM |  | Pharmcokinetics: Liver levels compared with sertraline [1]: much greater; CC50 ([5]; CC50): 12.9 µM; Emax [6, 11]: 83.3 ± 20.2%; IC50 ([6]; Huh-7, 48 h): 6.43 µM; Emax ([6]; Huh-7, 48 h, read-out: Max Effect): 95%; IC50 ([6]; Huh-7, 72 h): 3.99 ± 0.8 µM
CN[C@H]1CC[C@@H](c2ccc(Cl)c(Cl)c2)c2ccc(C[S+](C)[O-])cc21 (stereo partly drawn) [(1S,4S)-4-(3,4-dichlorophenyl)-N-methyl-7-(methylsulfinylmethyl)-1,2,3,4-tetrahydronaphthalen-1-amine] |  |  | 5.17 µM and 5.15 µM | 1.55 µM | 450 nM |  | 14.8 ± 0.97 µM | 1.34 ± 0.26 µM | 96.5 ± 2.6% | 97.9 ± 1.1% | 1.46 ± 0.23 µM | 5.13 ± 0.16 µM | CC50 ([2]; human): 15.3 µM; BBB/Neurotransmitter Binding (nM) SRI [7]: 340 nM
CN[C@H]1CC[C@@H](c2ccc(Cl)c(Cl)c2)c2ccccc21 [Sertraline, sertraline, reference compound] |  |  | 9.65 µM |  |  | 7.98 µM |  |  |  | 62.6 ± 21.5% |  | 11.3 µM | CC50 ([2]; human): 7.7 µM; Max Effect@CC30 (inhibition) [3]: 75.12%; effect on survival rate (in words) [8]: dose dependant increase in survival rate; also recorded: improves survival rate; Emax ([6]; Huh-7, read-out: Max Effect @CC30 (inhibition)): 68.5%
N#C/C(=C\c1ccc(O)c(O)c1)C(=O)Nc1ccccc1 [AG-494, AG 494, reference compound] |  |  |  |  |  |  |  |  |  |  |  |  | IC50 [3]: 3.45 µM; IC50 [9]: 45 µM
CSc1ccc(Oc2ccc(S(N)(=O)=O)cc2CN(C)C)cc1C [UK-416244, 3-((dimethylamino)methyl)-4-(3-methyl-4-(methylthio)phenoxy)benzenesulfonamide, reference compound] | lower than sertraline | Optimal PK, Liver | 6.55 µM | 1.74 µM |  | 327 µM | > 50 µM | 1.41 ± 0.2 µM | 97.2 ± 1.4% | 97.2 ± 1.4% | 1.41 ± 0.2 µM | 6.17 ± 3.23 µM | Pharmcokinetics: Liver levels, fold over IC50 [1]: sertraline, 511 fold over; Emax [6, 11]: 97%; IC50 ([6]; Huh-7): 1.41 µM; IC50 ([6]; Huh-7, 72 h): 1.63 µM; IC90 ([6]; Huh-7, 72 h): 9.86 µM; BBB/Neurotransmitter Binding (nM) SRI ([7]; Table 19): <5 nM
CC(=O)OC[C@H]1O[C@@H]([S-])[C@H](OC(C)=O)[C@@H](OC(C)=O)[C@@H]1OC(C)=O.CCP(CC)CC.[Au+] [Auranofin, reference compound] |  |  |  |  |  |  |  |  |  |  |  |  | solubility in water (in words) [10]: insoluble in water; IC50 [3]: 1.07 µM

Reference: patent US20100009970A1, “COMPOSITIONS AND METHODS FOR TREATMENT OF VIRAL DISEASES” (Combinatorx (Singapore) Pte. Ltd., priority 2008, published 2010)
